From US12180226B2, “Spirotricycle RIPK1 inhibitors and methods of uses thereof” (Merck Sharp & Dohme LLC, priority 2021, dated 2024)
Structures can show the parent of a compound that is named as a salt.

target: RIPK1 (recombinant GST-RIPK1 kinase domain, residues 1-327) (Homo sapiens (Human), UniProt Q13546); test: RIPK1-ADP-Glo Enzymatic Assay; assay type: biochemical; details: ADP-Glo; 25 nM GST-RIPK1, 300 μM ATP; assay lower limit ~25 nM; read-out: RIPK1 V0 Ec50
How it was run: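 Inhibition of ADP formation was measured after compound and enzyme (25 nM) were pre-incubated for 30 minutes at ambient temperature and the kinase reaction ran for 150 minutes at 300 μM ATP with dephosphorylated MBP substrate. EC50 values come from ten-point curves fitted non-linearly.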

Sequence of RIPK1 (recombinant GST-RIPK1 kinase domain, residues 1-327) (Q13546 1-327): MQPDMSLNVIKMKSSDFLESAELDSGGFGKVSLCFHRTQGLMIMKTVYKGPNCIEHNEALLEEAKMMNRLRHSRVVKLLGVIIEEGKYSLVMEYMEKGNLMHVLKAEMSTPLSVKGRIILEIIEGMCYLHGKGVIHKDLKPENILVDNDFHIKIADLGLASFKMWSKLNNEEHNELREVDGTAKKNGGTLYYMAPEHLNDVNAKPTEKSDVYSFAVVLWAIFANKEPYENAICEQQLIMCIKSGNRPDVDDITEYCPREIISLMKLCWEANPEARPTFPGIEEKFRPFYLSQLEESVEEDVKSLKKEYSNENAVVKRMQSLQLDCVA

SMILES	EC50
Cc1cnn(-c2cc(N3CCC4(CC3)O[C@@H]3CC[C@@H](c5ccccc5)N3C4=O)ncn2)c1 [Example 4.176, (5′S,7a′R)-1-[6-(4-methyl-1H-pyrazol-1-yl)pyrimidin-4-yl]-5′-phenyltetrahydro-3′H-spiro[piperidine-4,2′-pyrrolo[2,1-b] [1,3]oxazol]-3′-one]	48.8 nM
Cc1cnc(C(=O)N2CCC3(CC2)O[C@@H]2CC[C@@H](c4cc(F)cc(F)c4)N2C3=O)cn1 [Example 6.3, (5′S,7a′R)-5′-(3,5-difluorophenyl)-1-(5-methylpyrazine-2-carbonyl)tetrahydro-3′H-spiro[piperidine-4,2′-pyrrolo[2,1-b] [1,3]oxazol]-3′-one]	60.1 nM
O=C1N2[C@@H](CC[C@H]2c2cc(F)cc(F)c2)OC12CCN(c1ncc(F)c3nncn13)CC2 [Example 13.13, (5′S,7a′R)-5′-(3,5-difluorophenyl)-1-(8-fluoro-[1,2,4]triazolo[4,3-c]pyrimidin-5-yl)tetrahydro-3′H-spiro[piperidine-4,2′-pyrrolo[2,1-b]oxazol]-3′-one, TFA salt]	366 nM
COc1ncccc1C(=O)N1CCC2(CC1)O[C@@H]1CC[C@@H](c3cc(F)cc(F)c3)N1C2=O [Example 6.18, (5′S,7a′R)-5′-(3,5-difluorophenyl)-1-(2-methoxypyridine-3-carbonyl)tetrahydro-3′H-spiro[piperidine-4,2′-pyrrolo[2,1-b] [1,3]oxazol]-3′-one]	154 nM
O=C(c1cnc2snnc2c1)N1CCC2(CC1)O[C@@H]1CC[C@@H](c3cc(F)cc(F)c3)N1C2=O [Example 6.46, (5′S,7a′R)-5′-(3,5-difluorophenyl)-1-([1,2,3]thiadiazolo-[5,4-b]pyridine-6-carbonyl)tetrahydro-3′H-spiro[piperidine-4,2′-pyrrolo[2,1-b] [1,3]oxazol]-3′-one]	211 nM
O=C1N2[C@@H](CC[C@H]2c2cc(F)cc(F)c2)OC12CCN(c1ccnc3ncnn13)CC2 [Example 4.83, (5′S,7a′R)-1-([1,2,4]triazolo[1,5-a]pyrimidin-7-yl)-5′-(3,5-difluorophenyl)tetrahydro-3′H-spiro[piperidine-4,2′-pyrrolo[2,1-b]oxazol]-3′-one, TFA salt]	363 nM
O=C(c1nc2cnccc2s1)N1CCC2(CC1)O[C@@H]1CC[C@@H](c3cc(F)cc(F)c3)N1C2=O [Example 6.44, (5′S,7a′R)-5′-(3,5-difluorophenyl)-1-([1,3]thiazolo[4,5-c]pyridine-2-carbonyl) tetrahydro-3′H-spiro [piperidine-4,2′-pyrrolo[2,1-b][1,3]oxazol]-3′-one]	67.1 nM
O=C1N2[C@@H](CC[C@H]2c2cc(F)cc(F)c2)OC12CCN(c1cccc3nccn13)CC2 [Example 13.5, (5′S,7a′R)-5′-(3,5-difluorophenyl)-1-(imidazo[1,2-a]pyridin-5-yl)tetrahydro-3′H-spiro[piperidine-4,2′-pyrrolo[2,1-b]oxazol]-3′-one, TFA salt]	98.4 nM
CCOC(=O)c1ccc(N2CCC3(CC2)O[C@@H]2CC[C@@H](c4ccccc4)N2C3=O)nc1 [Example 4.200, ethyl 6-[(5′S,7a′R)-3′-oxo-5′-phenyltetrahydro-1H,3′H-spiro[piperidine-4,2′-pyrrolo[2,1-b] [1,3]oxazol]-1-yl]pyridine-3-carboxylate]	52.5 nM

The next lines start with the values.

EC50	SMILES
< 25 nM	O=C(c1cccc(Cl)c1)N1CCC2(CC1)O[C@@H]1CC[C@@H](c3cc(F)cc(F)c3)N1C2=O [Example 6.9, (5′S,7a′R)-1-(3-chloro-benzene-1-carbonyl)-5′-(3,5-difluoro-phenyl)tetrahydro-3′H-spiro[piperidine-4,2′-pyrrolo[2,1-b] [1,3]oxazol]-3′-one]
43.1 nM	CC1CN(C(=O)c2ccccc2)CCC12O[C@@H]1CC[C@@H](c3cc(F)cc(F)c3)N1C2=O (single isomer, unassigned) [Example 2.7, (3[R or S],4[S or R], 5′S,7a′R)-1-benzoyl-5′-(3,5-difluorophenyl)-3-methyltetrahydro-3′H-spiro[piperidine-4,2′-pyrrolo[2,1-b]oxazol]-3′-one]
< 25 nM	O=C(c1ccccc1)N1CCC2(CC1)O[C@@H]1CC[C@@H](c3cccc(F)c3)N1C2=O [Example 1.5, (5′S,7a′R)-1-(benzenecarbonyl)-5′-(3-fluorophenyl)tetrahydro-3′H-spiro[piperidine-4,2′-pyrrolo[2,1-b] [1,3]oxazol]-3′-one]
< 25 nM	C#Cc1cnc(N2CCC3(CC2)O[C@@H]2CC[C@@H](c4ccccc4)N2C3=O)n2ncnc12 [Example 21.23, (5′S,7a′R)-1-(8-ethynyl[1,2,4]triazolo [1,5-c]pyrimidin-5-yl)-5′-phenyltetrahydro-3′H-spiro[piperidine-4,2′-pyrrolo[2,1-b][1,3]oxazol]-3′-one]
48.6 nM	O=C1N2[C@@H](CC[C@H]2c2cc(F)cc(F)c2)OC12CCN(c1ncc(Cl)cn1)CC2 [Example 4.63, (5′S,7a′R)-1-(5-chloropyrimidin-2-yl)-5′-(3,5-difluorophenyl)tetrahydro-3′H-spiro[piperidine-4,2′-pyrrolo[2,1-b] [1,3]oxazol]-3′-one]
< 25 nM	O=C1N2[C@@H](CC[C@H]2c2ccc(F)cc2)OC12CCN(c1ccnc3c(F)cnn13)CC2 [Example 4.124, (5′S,7a′R)-5′-(4-fluorophenyl)-1-(3-fluoropyrazolo[1,5-a]pyrimidin-7-yl)tetrahydro-3′H-spiro[piperidine-4,2′-pyrrolo[2,1-b] [1,3]oxazol]-3′-one]
< 25 nM	O=C1N2[C@@H](CC[C@H]2c2cc(F)cc(F)c2)OC12CCN(c1ncnn3cccc13)CC2 [Example 13.11, (5′S,7a′R)-5′-(3,5-difluorophenyl)-1-(pyrrolo [2,1-f][1,2,4]triazin-4-yl)tetrahydro-3′H-spiro[piperidine-4,2′-pyrrolo[2,1-b]oxazol]-3′-one, TFA salt]
< 25 nM	O=C1N2[C@@H](CC[C@H]2c2ccccc2)OC12CCN(c1ccc(-c3cscn3)c3ncnn13)CC2 [Example 21.19, (5′S,7a′R)-5′-phenyl-1-[8-(1,3-thiazol-4-yl)[l,2,4]triazolo[1,5-a]pyridin-5-yl]tetrahydro-3′H-spiro[piperidine-4,2′-pyrrolo[2,1-b][1,3]oxazol]-3′-one]
< 25 nM	O=C1N2[C@@H](CC[C@H]2c2ccccc2F)OC12CCN(c1ccnc3c(F)cnn13)CC2 [Example 4.102, (5′S,7a′R)-5′-(2-fluorophenyl)-1-(3-fluoropyrazolo[1,5-a]pyrimidin-7-yl)tetrahydro-3′H-spiro[piperidine-4,2′-pyrrolo[2,1-b]oxazol]-3′-one]
39 nM	O=C(c1cc(F)ccc1F)N1CC2(C1)O[C@@H]1CC[C@@H](c3ccccc3F)N1C2=O [Example 1.18, (5′S,7a′R)-1-(2,5-difluorobenzoyl)-5′-(2-fluorophenyl)tetrahydro-3′H-spiro[azetidine-3,2′-pyrrolo[2,1-b]oxazol]-3′-one]
48.6 nM	Cc1ccnc(C(=O)N2CCC3(CC2)O[C@@H]2CC[C@@H](c4cc(F)cc(F)c4)N2C3=O)c1 [Example 6.102, (5′S,7a′R)-5′-(3,5-difluorophenyl)-1-(4-methylpyridine-2-carbonyl)tetrahydro-3′H-spiro[piperidine-4,2′-pyrrolo[2,1-b] [1,3]oxazol]-3′-one]
